Like-named read-outs stand apart in the source and are kept apart here.
Experiments:
in vivo = details: male, Beagle, dog
Method: The purpose of the study was to assess the pharmacokinetics and absolute bioavailability of dexmedetomidine in a group of five Beagle dogs (males, each aged 5 to 8 months and weighing between 7.5 and 9.2 kg) following sublingual spray administration of the different formulations described in Tables 1 and 2.
For sublingual administration, a spray application was administered by one depression of a pump device into the oral cavity under the tongue. In order to ensure proper pump priming, two actuations were performed prior to dosing. Following dose administration, serial blood samples were collected form each subject animal by venipuncture of a jugular vein as follows: 0 (predose), 0.083, 0.167, 0.25, 0.33, 0.5, 1, 2, and 6 hours post-sublingual dose. […] Blood samples were collected in vacutainer tubes containing K2EDTA as anticoagulant, and derived plasma samples were stored frozen until analyzed.

[1] = human, cited from earlier work
[2] = human, cited from earlier work; remark: listed apart in the source

For `Cc1cccc([C@H](C)c2cnc[nH]2)c1C` [dexmedetomidine, 5-[(1S)-1-(2,3-dimethylphenyl)ethyl]-1H-imidazole], the Cmax (in vivo) is listed as 0.914 ng/mL, the Tmax (in vivo) is listed as 0.333 h and the absolute bioavailability ([1]; i.m. administration) is listed as 73%. For the same compound, the “time to maximum concentration in blood” value ([1]; i.m. administration) was 1.6 to 1.7 h, the mean elimination half-life ([1]; i.m. dosing) was 3 h and the mean elimination half-life ([1]; i.v. dosing) was 1.5 h. For the same compound, the absolute bioavailability ([1]; transdermal administration) was 88%, the mean elimination half-life ([1]; transdermal administration) was 5.6 h and the “time to maximum concentration in blood” value ([1]; transdermal administration) was 6 h. For the same compound, the apparent elimination half-life ([2]; buccal) was 1.9 h, the “time of maximum concentration” value ([2]; buccal) was “approximately 1.5 h” and the mean buccal bioavailability ([2]; solution held in mouth without swallowing) was 81.8%.

Source: US20110021588A1, “SUBLINGUAL DEXMEDITOMIDINE COMPOSITIONS AND METHODS OF USE THEREOF” (RECRO PHARMA, INC., priority 2009, published 2011)
